Like-named read-outs stand apart in the source and are kept apart here.
What was measured:
mPGES-1 Mouse enzyme = molecular target: T1, mPGES-1 Mouse enzyme (Mus musculus, UniProt Q9JM51); test: mPGES-1 enzyme activity assay (PGE2 enzyme immunoassay), mouse enzyme; format: biochemical; conditions: for IC50: recombinant microsomal enzyme, means ± SD, triplicate; for inhibition at 10 µM: compound at a concentration of 10 μM, read-out: % inhibition of the compound against mPGES-1, Mouse enzyme
T1 construct: made in house; host or cells: FreeStyle 293-F cells, crude microsomal preparation
T1 sequence (Q9JM51 1-153): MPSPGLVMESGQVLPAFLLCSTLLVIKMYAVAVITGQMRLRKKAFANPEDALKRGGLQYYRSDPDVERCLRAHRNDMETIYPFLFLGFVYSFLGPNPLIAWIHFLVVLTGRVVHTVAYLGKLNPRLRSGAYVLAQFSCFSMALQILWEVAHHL
Procedure: (§1) Studies were conducted to characterize the inhibitory activity against recombinant mPGES-1 of the compounds synthesized in accordance with Examples 1-4, and disclosed herein.
(§2) Briefly, FreeStyle 293-F cells were cultured following manufacturer's manual in FreeStyle 293 expression medium on orbit rotate shaker in 8% CO2 incubator at 37° C. Cells were transfected with 1.5 μg/mL of mPGES-1/pcDNA3 construct using FreeStyle Max reagent at a cell density of 1×10^6 for 2 days. Transfected cells were collected, washed, and sonicated in TSES buffer (15 mM Tris-HCl, pH 8.0 plus 0.25 M sucrose, 0.1 mM EDTA and 1 mM DTT) on ice. The broken cells were first centrifuged at 12,500×g for 10 min. The supernatant was further centrifuged at 105,000×g for 1 hr at 4° C. The pellet was washed and homogenized in PBS buffer. The crude microsomal mPGES-1 preparation was aliquoted and stored at −80° C. The crude protein concentration was 8 mg/mL.
(§3) The enzyme activity assays were performed on ice in 1.5 ml microfuge tubes by using the expressed mPGES-1. The reaction mixture contained: 0.2 M Na2HPO4/NaH2PO4, pH 7.2, 10 μL; 0.1 M GSH, 2.5 μL; diluted microsomal enzyme (80 μg/mL), 1 μL; PGH2 (0.31 mM in DMF), 5 μL; 1 μL inhibitor; and H2O in a final reaction volume of 100 μL. PGH2 was stored in dry ice and used to initiate the reaction.
(§4) Compounds were incubated with the enzyme for 15 min at room temperature before the addition of cold PGH2 (1 μM final) to initiate the enzyme reaction. After 30 s, 10 μL of SnCl2 (40 mg/mL) in ethanol was added to stop the reaction. The nonenzymatic conversion of PGH2 to PGE2 was performed in the same buffer devoid of enzyme. The reaction mixture was placed on ice until PGE2 production was determined by the PGE2 enzyme immunoassay as described earlier. IC50 values of the inhibitors were calculated by using the GraphPad Prism 4.0 program. The results are set forth in the tables provided in Examples 7-10.

mPGES-1 = molecular target: T2, mPGES-1 (Homo sapiens, UniProt O14684); test: mPGES-1 enzyme activity assay (PGE2 enzyme immunoassay), human enzyme; format: biochemical; parameters: made in house; host or cells: FreeStyle 293-F cells, crude microsomal preparation; conditions: recombinant microsomal enzyme, means ± SD, triplicate
T2 sequence (O14684 1-152): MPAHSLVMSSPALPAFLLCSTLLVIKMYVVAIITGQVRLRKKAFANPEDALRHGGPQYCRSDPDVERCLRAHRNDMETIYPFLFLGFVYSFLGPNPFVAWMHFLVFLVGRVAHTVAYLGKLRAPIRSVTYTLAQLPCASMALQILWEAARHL
Procedure: as §1, §2, §3, §4

[1] = IC50 against mPGES-1, Mouse enzyme
[2] = IC50 against mPGES-1, Human enzyme
[3] = read-out: IC50 against mPGES-1, Human enzyme
[4] = read-out: IC50 against mPGES-1, Mouse enzyme

SMILES | IC50 (mPGES-1 Mouse enzyme; [1]) [nM] | IC50 (mPGES-1; [2]) [nM] | inhibition at 10 µM (mPGES-1 Mouse enzyme) [%] | IC50 (mPGES-1; [3]) [nM] | IC50 (mPGES-1 Mouse enzyme; [4]) [nM]
CCOc1cc(C=C2C(=O)NC(=O)NC2=O)ccc1OCCCCC1CCCCC1 [Compound I-07] | 2410 ± 339 | 186 ± 26 | – | – | –
COc1cc(C=C2C(=O)NC(=O)NC2=O)cc(Cl)c1OCCCCC1CCCCC1 [Compound I-09] | 360 ± 56 | 22 ± 7 | – | – | –
COc1cc(C=C2C(=O)NC(=O)NC2=O)cc(Br)c1OCCCCC1CCCCC1 [Compound I-10] | 292 ± 47 | 69 ± 16 | – | – | –
COc1cc(C=C2C(=O)NC(=O)NC2=O)cc(I)c1OCCCCC1CCCCC1 [Compound I-11] | 359 ± 50 | 54 ± 12 | – | – | –
COc1ccc(C=C2C(=O)NC(=O)NC2=O)cc1OCCCCC1CCCCC1 [Compound I-12] | 727 ± 109 | 152 ± 53 | – | – | –
O=C1NC(=O)C(=Cc2cc(Cl)ccc2OCCCCC2CCCCC2)C(=O)N1 [Compound I-13] | – | – | 28 | 87 ± 27 | –
O=C1NC(=O)C(=Cc2cc(Br)ccc2OCCCCC2CCCCC2)C(=O)N1 [Compound I-14] | – | 96 ± 14 | 38 | – | –
O=C1NC(=O)C(=Cc2cc(I)ccc2OCCCCC2CCCCC2)C(=O)N1 [Compound I-15] | 12100 ± 1960 | 135 ± 18 | – | – | –
O=C1NC(=O)C(=Cc2c(OCCCCC3CCCCC3)ccc3ccccc23)C(=O)N1 [Compound I-16] | 7040 ± 1850 | 154 ± 18 | – | – | –
O=C1NC(=O)C(=Cc2ccc(OCCCCC3CCCCC3)c3ccccc23)C(=O)N1 [Compound I-17] | 3700 ± 562 | 171 ± 34 | – | – | –
CN1C(=O)C(=Cc2ccc(OCCCCC3CCCCC3)c(Cl)c2)C(=O)N(C)C1=O [Compound I-18] | – | 272 ± 30 | 8 | – | –
CN1C(=O)C(=Cc2ccc(OCCCCC3CCCCC3)c(Br)c2)C(=O)N(C)C1=O [Compound I-19] | – | 427 ± 55 | 24 | – | –
CN1C(=O)C(=Cc2ccc(OCCCCC3CCCCC3)c([N+](=O)[O-])c2)C(=O)N(C)C1=O [Compound I-20] | – | 561 ± 55 | 15 | – | –
O=C1NC(=O)C(=Cc2ccc(OCCCCC3CCCCC3)c(Cl)c2)C(=O)N1 [Compound I-21] | 415 ± 120 | 28 ± 3 | – | – | –
O=C1NC(=O)C(=Cc2ccc(OCCCC3CCCCC3)c([N+](=O)[O-])c2)C(=O)N1 [Compound I-26] | 373 ± 51 | 156 ± 30 | – | – | –
CN1C(=O)C(=Cc2ccc(OCCCC3CCCCC3)c(Cl)c2)C(=O)N(C)C1=O [Compound I-27] | – | 240 ± 20 | 29 | – | –
CN1C(=O)C(=Cc2ccc(OCCCC3CCCCC3)c(Br)c2)C(=O)N(C)C1=O [Compound I-28] | – | 127 ± 14 | 30 | – | –
CN1C(=O)C(=Cc2ccc(OCCCC3CCCCC3)c([N+](=O)[O-])c2)C(=O)N(C)C1=O [Compound I-29] | – | 188 ± 21 | 41 | – | –
O=C1NC(=O)C(=Cc2ccc(OCCCC3CCCCC3)c([N+](=O)[O-])c2)C(=O)N1 [Compound I-32] | 428 ± 58 | 73 ± 12 | – | – | –
O=C1NC(=O)C(=Cc2ccc(OCCCCc3ccccc3)c(Cl)c2)C(=O)N1 [Compound I-33] | 2790 ± 525 | 73 ± 10 | – | – | –
O=C1NC(=O)C(=Cc2ccc(OCCCOc3ccccc3)c(Cl)c2)C(=O)N1 [Compound I-34] | 8130 ± 1010 | 349 ± 40 | – | – | –
O=C1NC(=O)C(=Cc2ccc(OCCCOc3ccc(-c4ccccc4)cc3)c(Cl)c2)C(=O)N1 [Compound I-35] | – | 337 ± 34 | 17 | – | –
O=C1NC(=O)C(=Cc2ccc(OCCCOc3ccc4ccccc4c3)c(Cl)c2)C(=O)N1 [Compound I-36] | – | 365 ± 59 | 19 | – | –
O=C1NC(=O)C(=Cc2ccc(OCCC3CCCCC3)c([N+](=O)[O-])c2)C(=O)N1 [Compound I-37] | 2390 ± 425 | 517 ± 68 | – | – | –
O=C1NC(=O)C(=Cc2ccc(OCC3CCCCC3)c([N+](=O)[O-])c2)C(=O)N1 [Compound I-38] | – | 1110 ± 104 | 42 | – | –

SMILES | IC50 (mPGES-1 Mouse enzyme; [1]) [nM] | IC50 (mPGES-1; [2]) [nM] | inhibition at 10 µM (mPGES-1 Mouse enzyme) [%] | IC50 (mPGES-1; [3]) [nM] | IC50 (mPGES-1 Mouse enzyme; [4]) [nM]
CCCCCOc1ccc(C=C2C(=O)NC(=O)NC2=O)cc1[N+](=O)[O-] [Compound I-39] | 6310 ± 1140 | 460 ± 64 | – | – | –
CCCCCCCOc1ccc(C=C2C(=O)NC(=O)NC2=O)cc1[N+](=O)[O-] [Compound I-40] | 734 ± 119 | 232 ± 54 | – | – | –
CCCCCCCCCOc1ccc(C=C2C(=O)NC(=O)NC2=O)cc1[N+](=O)[O-] [Compound I-41] | 1300 ± 163 | 188 ± 43 | – | – | –
O=C1NC(=O)C(Cc2ccc(OCCCCC3CCCCC3)c(Cl)c2)C(=O)N1 [Compound I-42] | 1330 ± 151 | 133 ± 20 | – | – | –
O=C1NC(=O)C(Cc2ccc(OCCCCC3CCCCC3)c(Br)c2)C(=O)N1 [Compound I-43] | 1090 ± 211 | 97 ± 13 | – | – | –
O=C1NC(=O)C(Cc2ccc(OCCCCC3CCCCC3)c([N+](=O)[O-])c2)C(=O)N1 [Compound I-44] | 3350 ± 560 | 136 ± 23 | – | – | –
CCCCCCOc1ccc(C=C(C#N)C#N)cc1[N+](=O)[O-] [Compound V-04] | – | – | – | 285 ± 40 | 754 ± 73
CCCCCCCOc1ccc(C=C(C#N)C#N)cc1[N+](=O)[O-] [Compound V-05] | – | – | – | 135 ± 16 | 776 ± 217
CCCCCCCCOc1ccc(C=C(C#N)C#N)cc1[N+](=O)[O-] [Compound V-06] | – | – | – | 89 ± 12 | 716 ± 120
CCCCCCCOc1ccc(C=C(C#N)C#N)cc1 [Compound V-10] | – | – | – | 136 ± 13 | 1390 ± 255
CCCCCCOc1c(Br)cc(C=C(C#N)C#N)cc1OC [Compound V-13] | – | – | – | 181 ± 33 | 1630 ± 250
CCCCCCCOc1c(Br)cc(C=C(C#N)C#N)cc1OC [Compound V-15] | – | – | – | 83 ± 14 | 357 ± 52
CCCCCCCCOc1c(Br)cc(C=C(C#N)C#N)cc1OC [Compound V-18] | – | – | – | 74 ± 8 | 572 ± 83
CCCCCCCCCCCCCCCCCCOc1c(Br)cc(C=C(C#N)C#N)cc1OC [Compound V-20] | – | – | – | 50 ± 9 | 270 ± 64
CCCCOc1ccc(C=C(C#N)C#N)cc1OC [Compound V-22] | – | – | – | 348 ± 100 | 1770 ± 241
CCCCCCCCCCOc1ccc(/C=C(\C#N)C(=O)O)cc1OC [Compound V-27] | – | – | – | 51 ± 10 | 390 ± 84
CCCCCCCOc1ccc(C=C(C#N)C#N)cc1OC [Compound V-35] | – | – | – | 256 ± 33 | 7290 ± 2550
O=C(O)CN1C(=O)S/C(=C2\C(=O)N(Cc3ccccc3)c3ccccc32)C1=O [II-01] | – | – | 10 | 817 ± 79 | –
O=C(O)CN1C(=O)S/C(=C2\C(=O)N(Cc3ccc(Cl)cc3)c3ccccc32)C1=O [II-02] | – | – | 45 | 614 ± 63 | –
O=C(O)CN1C(=O)S/C(=C2\C(=O)N(CCc3ccccc3)c3ccccc32)C1=O [II-03] | – | – | 62 | 348 ± 44 | –
O=C(O)CN1C(=O)S/C(=C2\C(=O)N(CCCc3ccccc3)c3ccccc32)C1=O [II-04] | – | – | – | 2400 ± 132 | 747 ± 163
O=C(O)CN1C(=O)S/C(=C2\C(=O)N(CCCCc3ccccc3)c3ccccc32)C1=O [II-05] | – | – | 61 | 963 ± 87 | –
O=C(O)CN1C(=O)S/C(=C2\C(=O)N(CC3CCCCC3)c3ccccc32)C1=O [II-06] | – | – | – | 1270 ± 104 | 2730 ± 422
O=C(O)CN1C(=O)S/C(=C2\C(=O)N(CCC3CCCCC3)c3ccccc32)C1=O [II-07] | – | – | 39 | 494 ± 32 | –
O=C(O)CN1C(=O)S/C(=C2\C(=O)N(CCCC3CCCCC3)c3ccccc32)C1=O [II-08] | – | – | – | 253 ± 30 | 1520 ± 317
